This note sets out measurements from US20230339854A1, “Negative Allosteric Modulation of GluN3-Containing N-Methyl-D-Aspartate Receptors” (Emory University, priority 2020, published 2023).

The structures appear in SMILES notation.

Assay [1] has as its target T1, human GluN1/GluN3A receptors (Homo sapiens, UniProt Q8TCU5).
T1 construct: Human GluN3A (NP_597702.2) and rat GluN3B (NP_579842.2) were synthesized and subcloned into SP6 plasmids; expressed in transfected cells; host or cells: Xenopus laevis oocytes, cRNA injection
Briefly: Two-electrode voltage-clamp recordings of GluN1/GluN3A receptors in the presence of CGP-78608 (Xenopus oocytes). Format: cell-based. The source says: (§1) cDNA encoding human wild-type (WT) GluN1-1a (GenBank accession numbers NP_015566, hereafter GluN1) and rat GluN1-1a (NP_058706.1) were synthesized and subcloned into pGEMHE plasmid; some experiments used the rat splice variant GluN1-4a (NP_001257531.1). Human GluN3A (NP_597702.2) and rat GluN3B (NP_579842.2) were synthesized and subcloned into SP6 plasmids. For most experiments, human GluN1 was co-expressed with human GluN3A, except for mutagenesis experiments where rat GluN1 was co-expressed with human GluN3A. Rat GluN1-4a was always expressed with rat GluN3B.
(§2) Defolliculated Xenopus laevis oocytes (stage V-VI) were obtained from Ecocyte BioScience (Austin, Texas), or prepared from commercially available Xenopus ovaries (Xenopus 1, Dexter, MI) as previously described (Hansen, et al., Mol. Pharmacol., 2013). A Drummond Nanoject II (Broomall, PA) was used to inject oocytes with cRNAs encoding GluN1 and GluN3 at a 1:3 ratio in RNase-free water. The cRNA was diluted as needed to give responses with amplitudes ranging between 200-2000 nA (0.2-10 ng total cRNA). Following cRNA injection, the oocytes were stored at 15-19° C. in Barth's solution that contained (in mM) 88 NaCl, 2.4 NaHCO3, 1 KCl, 0.33 Ca(NO3)2, 0.41 CaCl2), 0.82 MgSO4, and 5 Tris-HCl (pH 7.4 with NaOH), supplemented with 1 μg/ml streptomycin (Invitrogen, Carlsbad, CA) and 100 μg/ml gentamicin (Fisher Scientific, Pittsburgh, PA). Recordings were performed 2-5 days following cRNA microinjection at room temperature (23° C.) using a two-electrode voltage-clamp amplifier (OC725, Warner Instrument, Hamilton, CT). The signal was low-pass filtered at 10-20 Hz (4-pole, −3 dB Bessel) and digitized at the Nyquist rate using PCI-6025E or USB-6212 BNC data acquisition boards (National Instruments, Austin, TX) using EasyOocyte (http://www.easyoocyte.io/). Oocytes were placed in a custom-made chamber and continuously perfused (2.5 ml/min) with oocyte recording solution containing (in mM) 90 NaCl, 1 KCl, 10 HEPES, 0.5-1.0 BaCl2, and 0.01 EDTA (pH 7.4 with NaOH). Solutions were applied by gravity, and solution exchange was controlled through a rotary valve (Hamilton, Reno, NV). Recording electrodes were filled with 0.3-3.0 M KCl, and current responses were recorded at a holding potential of −40 mV.
(§3) Response (%)=(100−minimum)/(1+([concentration]/IC50)^nH)+minimum (2) • where nH is the Hill slope, IC50 is the concentration that produces a half-maximal effect, and minimum is the degree of residual inhibition at a saturating concentration of the negative allosteric modulator.
(In two-electrode clamp one electrode senses voltage and the other passes current.)

Assay [2] deals with T2, human GluN1/GluN3A receptors (Homo sapiens, UniProt Q05586+Q8TCU5).
T2 construct: Human GluN3A (NP_597702.2) and rat GluN3B (NP_579842.2) were synthesized and subcloned into SP6 plasmids; expressed in transfected cells; host or cells: Xenopus laevis oocytes, cRNA injection
T2 sequence (Q8TCU5 24-1115, other chains not shown): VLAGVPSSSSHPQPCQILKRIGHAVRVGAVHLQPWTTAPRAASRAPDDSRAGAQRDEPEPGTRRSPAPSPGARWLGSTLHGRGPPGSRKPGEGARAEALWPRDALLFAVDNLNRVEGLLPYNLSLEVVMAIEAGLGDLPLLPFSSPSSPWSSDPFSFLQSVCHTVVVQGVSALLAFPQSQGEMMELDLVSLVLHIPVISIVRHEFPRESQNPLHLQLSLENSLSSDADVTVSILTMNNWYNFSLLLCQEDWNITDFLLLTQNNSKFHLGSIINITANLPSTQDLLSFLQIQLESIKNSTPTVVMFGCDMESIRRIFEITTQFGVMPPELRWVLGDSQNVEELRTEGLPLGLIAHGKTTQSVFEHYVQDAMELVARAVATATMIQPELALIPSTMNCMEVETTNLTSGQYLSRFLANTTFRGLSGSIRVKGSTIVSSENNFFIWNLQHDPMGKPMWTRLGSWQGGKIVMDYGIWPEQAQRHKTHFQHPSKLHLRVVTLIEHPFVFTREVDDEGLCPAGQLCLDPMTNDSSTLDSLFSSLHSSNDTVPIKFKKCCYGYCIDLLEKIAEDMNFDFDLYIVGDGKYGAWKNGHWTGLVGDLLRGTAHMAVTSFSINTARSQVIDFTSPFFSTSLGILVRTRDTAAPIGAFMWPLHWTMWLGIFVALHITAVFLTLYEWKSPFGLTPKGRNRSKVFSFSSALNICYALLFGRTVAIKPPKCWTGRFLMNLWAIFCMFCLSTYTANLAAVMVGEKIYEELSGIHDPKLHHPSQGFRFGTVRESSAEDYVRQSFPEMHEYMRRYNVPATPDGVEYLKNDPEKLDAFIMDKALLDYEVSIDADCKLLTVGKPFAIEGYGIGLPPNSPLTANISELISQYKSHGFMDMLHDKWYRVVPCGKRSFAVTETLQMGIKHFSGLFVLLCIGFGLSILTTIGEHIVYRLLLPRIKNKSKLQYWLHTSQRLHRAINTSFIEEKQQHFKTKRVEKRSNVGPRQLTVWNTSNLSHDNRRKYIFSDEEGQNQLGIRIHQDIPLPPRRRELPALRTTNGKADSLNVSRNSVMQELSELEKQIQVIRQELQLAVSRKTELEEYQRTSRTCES
The description is as above. The class given is cell-based. As to conditions: pH 7.4; 0.5 μM CGP-78608; read-out: EC50, (95% CI) GluN1/GluN3A + CGP.
From the text: as §1, §2, §3

The target in assay [3] is T3, rat GluN1-4a/GluN3B receptors (Rattus norvegicus, UniProt P35439+Q8VHN2).
T3 construct: Human GluN3A (NP_597702.2) and rat GluN3B (NP_579842.2) were synthesized and subcloned into SP6 plasmids; expressed in transfected cells; host or cells: Xenopus laevis oocytes, cRNA injection
T3 sequence (Q8VHN2 25-1002, other chains not shown): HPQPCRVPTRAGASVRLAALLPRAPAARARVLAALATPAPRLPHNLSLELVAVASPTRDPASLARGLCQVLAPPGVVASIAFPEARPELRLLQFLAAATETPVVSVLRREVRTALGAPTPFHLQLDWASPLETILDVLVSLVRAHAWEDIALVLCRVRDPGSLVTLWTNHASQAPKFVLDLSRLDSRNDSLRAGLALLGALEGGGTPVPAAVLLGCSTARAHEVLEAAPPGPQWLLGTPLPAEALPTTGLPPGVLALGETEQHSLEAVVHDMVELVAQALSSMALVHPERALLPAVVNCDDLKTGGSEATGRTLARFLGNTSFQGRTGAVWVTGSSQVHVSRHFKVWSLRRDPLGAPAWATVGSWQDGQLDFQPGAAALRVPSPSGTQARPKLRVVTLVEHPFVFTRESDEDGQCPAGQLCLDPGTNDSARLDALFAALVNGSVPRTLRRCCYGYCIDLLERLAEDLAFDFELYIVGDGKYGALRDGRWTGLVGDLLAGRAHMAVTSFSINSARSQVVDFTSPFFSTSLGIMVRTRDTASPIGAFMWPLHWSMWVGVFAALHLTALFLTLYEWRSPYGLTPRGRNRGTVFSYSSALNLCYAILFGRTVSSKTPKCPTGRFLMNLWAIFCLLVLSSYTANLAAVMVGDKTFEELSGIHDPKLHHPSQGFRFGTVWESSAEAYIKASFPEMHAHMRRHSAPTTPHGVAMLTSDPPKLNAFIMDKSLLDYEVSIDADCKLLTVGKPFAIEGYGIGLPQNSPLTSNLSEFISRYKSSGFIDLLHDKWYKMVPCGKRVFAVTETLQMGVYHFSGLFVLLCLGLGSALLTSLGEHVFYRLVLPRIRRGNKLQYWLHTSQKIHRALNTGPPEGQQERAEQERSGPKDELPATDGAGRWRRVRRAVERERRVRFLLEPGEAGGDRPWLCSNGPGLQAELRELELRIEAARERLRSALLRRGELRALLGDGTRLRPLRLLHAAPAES
Briefly: Two-electrode voltage-clamp recordings of GluN1-4a/GluN3B receptors in the presence of CGP-78608 (Xenopus oocytes). The class given is cell-based. As to conditions: pH 7.4; 0.5 μM CGP-78608; read-out: EC50, (95% CI) GluN1/GluN3B + CGP.
From the text: as §1, §2, §3
Selected compounds were also screened in the same assay as EU1180-438 to determine their effect on GluN3B.

The target of the next assay is GluN1/GluN3A channels (Mus musculus, UniProt A2AIR5). Kind of assay: Nonstationary variance analysis of neuronal glycine-evoked current responses. Format: cell-based. As to conditions: 30 μM; VHOLD −60 mV. As to the method:
Nonstationary variance analysis (Perszyk, et al., Nat. Chem. Biol., 2020, 16(2), 188-196) was conducted on the deactivation phase of the neuronal glycine-evoked current responses bathed in vehicle (control) or 30 μM EU1180-438 (VHOLD: −60 mV). […] The current was divided into 50 equally spaced segments, and the mean current amplitude of each segment was determined. The current was high pass filtered with a cutoff of 1 Hz, and the current variance was determined for 50 segments. The plot of variance vs. current for each response was fitted by the equation:
Variance=iI−I^2/N • where I is the current amplitude of macroscopic response, i is the weighted mean unitary current, and N is the channel numbers. Virtually identical results were found if the current-variance relationship for all 10 responses for each cell were averaged and then fitted by the foregoing equation. Chord conductance y was determined assuming 0 mV for the reversal potential.
Some allosteric modulators with molecular determinants in the pre-M1 can reduce single channel conductance for glutamate receptors (Perszyk, et al., Nat. Chem. Biol., 2020, 16(2), 188-196; Yuan, et al., ACS Med. Chem. Lett., 2019, 10 (3), 237-242). […]

The test system of the next assay is GluA1-4 AMPA receptors. Kind of assay: AMPA receptors in Xenopus oocytes (selectivity). As to conditions: 20 μM. Format: cell-based, rat, human.
The next assay deals with GABA receptors. Kind of assay: GABA receptors in Xenopus oocytes (selectivity). The class given is cell-based, rat. As to conditions: 20 μM. On the procedure: The numbers of oocytes recorded are in parentheses.
The cDNA was linearized by restriction enzymes (Thermo Fisher Scientific, Lithuania), and the cRNA encoding the receptor subunits was synthesized from the linear template cDNA using the mMESSAGE mMACHINE kit (Invitrogen/Thermo Fisher Scientific, Lithuania). The α1β1δγ nAChR subunits were injected at a 1:1:1:1 ratio while α4 […] nAChR subunits were injected at a 1:1 ratio. The cDNAs encoding GABA and glycine subunits were provided by Dr. D. Weiss (University of Texas Health Science Center at San Antonio). The cDNAs encoding nAChR subunits were provided by Drs. R. Papke (University of Florida) and S. Heinemann (Salk Institute). The cDNA encoding the purinergic receptor was provided by Dr. R. Hume (University of Michigan).
Responses in the presence of EU1180-438 were expressed as a percent of control calculated as the average of the responses before and after EU1180-438 exposure. […]
Defolliculated Xenopus laevis oocytes (stage V-VI) were obtained from Ecocyte BioScience (Austin, Texas), or prepared from commercially available Xenopus ovaries (Xenopus 1, Dexter, MI) as previously described (Hansen, et al., Mol. Pharmacol., 2013). […] Recording electrodes were filled with 0.3-3.0 M KCl, and current responses were recorded at a holding potential of −40 mV.

The mark [4] stands for this setting: 500 nM CGP-78608 plus 100 μM glycine.

T1 sequence (Q8TCU5 24-1115, other chains not shown): as the sequence (Q8TCU5 24-1115, other chains not shown) above
GluN1/GluN3A channels, sequence (A2AIR5 27-1135, other chains not shown): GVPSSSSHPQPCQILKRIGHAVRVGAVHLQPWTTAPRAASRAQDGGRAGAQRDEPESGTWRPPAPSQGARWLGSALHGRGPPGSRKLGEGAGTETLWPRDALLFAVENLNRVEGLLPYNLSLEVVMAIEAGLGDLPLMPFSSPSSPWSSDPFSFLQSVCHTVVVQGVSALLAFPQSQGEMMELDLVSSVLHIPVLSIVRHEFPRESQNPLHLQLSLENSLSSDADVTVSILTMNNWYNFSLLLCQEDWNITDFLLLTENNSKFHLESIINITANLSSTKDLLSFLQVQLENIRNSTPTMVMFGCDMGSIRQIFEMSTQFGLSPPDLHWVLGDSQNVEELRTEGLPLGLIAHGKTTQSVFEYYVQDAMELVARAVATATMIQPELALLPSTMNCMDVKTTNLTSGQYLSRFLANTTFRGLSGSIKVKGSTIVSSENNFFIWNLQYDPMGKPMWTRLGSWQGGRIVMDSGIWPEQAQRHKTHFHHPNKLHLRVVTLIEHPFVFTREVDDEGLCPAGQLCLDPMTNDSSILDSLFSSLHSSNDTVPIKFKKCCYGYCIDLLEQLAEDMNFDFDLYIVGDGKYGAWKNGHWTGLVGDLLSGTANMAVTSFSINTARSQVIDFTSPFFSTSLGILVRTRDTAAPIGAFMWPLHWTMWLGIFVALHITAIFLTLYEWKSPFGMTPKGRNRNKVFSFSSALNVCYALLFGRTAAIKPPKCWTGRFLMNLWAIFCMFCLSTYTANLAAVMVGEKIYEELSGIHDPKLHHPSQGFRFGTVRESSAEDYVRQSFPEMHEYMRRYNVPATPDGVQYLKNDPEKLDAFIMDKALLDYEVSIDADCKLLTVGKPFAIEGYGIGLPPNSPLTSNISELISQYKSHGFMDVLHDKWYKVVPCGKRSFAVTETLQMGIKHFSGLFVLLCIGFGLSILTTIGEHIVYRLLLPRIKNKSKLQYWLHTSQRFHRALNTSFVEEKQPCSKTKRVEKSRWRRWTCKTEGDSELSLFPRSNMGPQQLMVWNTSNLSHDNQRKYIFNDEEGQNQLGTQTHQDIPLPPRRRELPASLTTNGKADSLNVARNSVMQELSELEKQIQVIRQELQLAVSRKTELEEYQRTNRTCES

`COc1ccc(OCC(c2ccc(OC)cc2)N2Cc3ccccc3C2=O)cc1` (racemic) [EU1180-438, 2-(2-(4-methoxyphenoxy)-1-(4-methoxyphenyl)ethyl)isoindolin-1-one]: the maximal inhibition in assay [1] (500 nM CGP-78608) is on record as 85%. For the same molecule, in assay [1] (setting [4]), the Slope turned out to be 1.5 and the minimum was determined as 15%. Also, the “% Inhibition GluN1/GluN3A + CGP” value in assay [1] (fitted maximum at saturating test compound, pH 7.4, 0.5 μM CGP-78608) is recorded as 85%, (n = 9). In addition, the EC50 in assay [2] was found to be 1800 nM. In addition, in assay [3], the EC50 came out at 2200 nM. Further, the “average chord conductance of GluN1/GluN3A channels” value on GluN1/GluN3A channels is given as 6.3±0.90 pS. In addition, the “activity at GluA1-4 AMPA receptors” value with GluA1-4 AMPA receptors is reported as “virtually no activity”. Further, in the assay with GABA receptors, the “activity at GABA receptors” value was “virtually no activity”.
